# Starred links: 1 amine or outer side, 2 acyl side, 3 side chain; linkers in the order of their positions; H or OH if unused. Positions of bridges follow the written chain, without caps; N, C: chain ends. Non-standard residues stand in square brackets, D forms with d. Residues, ends and D or L forms follow the SMILES beside them. Groups on a side chain read outwards from the residue. *: point of attachment. γGlu = O=C(O)[C@H](CCC(=O)[*:2])N[*:1]; Palmitoyl = CCCCCCCCCCCCCCCC(=O)*; X5 = O=C(O)CCCCCCCCCCCC(=O)*; AEEA = NCCOCCOCC(=O)O
# Assay: in vivo
# Design: species or system Sprague-Dawley rats
# Settings: rat, iv, 0.033 mg/kg
# Description: Peptides were dissolved in sterile saline and administered as a 1-hour intravenous infusion to non-fasted male Sprague-Dawley rats (n=3 per group) via femoral vein cannula at a final dose of 0.033 mg/kg. […] Blood samples (approximately 250 μL) were collected for pharmacokinetic analysis via a jugular vein cannula at 0.25, 0.5, 0.75, 1, 1.17, 1.33, 1.5, 2, 4, 6, 8, 24, 30 and 48 hr post-start of infusion into microtainer tubes containing K2EDTA as anticoagulant and 25 μL of a protease inhibitor cocktail. Plasma was prepared by centrifugation and stored at −80° C. until analysis. The results of this analysis are shown in Table 9 and few exemplars in FIGS. 3a-3b. […]
# A 60 μL aliquot of each plasma sample was placed into to a 96-well plate. To each well was added 6 μL of 0.5% Tween-20. Plates were then vortexed mixed for 10 minutes at 1200 rpm before 180 μL of 0.1% TFA in 2:1 ethanol:acetonitrile containing an appropriate internal standard was added to each well. Plates were vortex mixed for 5 min at 1300 rpm, and then centrifuged for 10 min at 2844×g. Supernatants (180 μL) were placed into a clean 96-well plate and evaporated under a nitrogen stream at 45° C. Residues were reconstituted in 80 μL of 20% acetonitrile (aq) containing 0.1% formic acid.
# A […] aliquot of each plasma sample was diluted with […] of 10 mM ammonium acetate (pH 6.8) containing an appropriate internal standard and loaded onto an Oasis WCX microElution plate (Waters Corporation, Milford, MA) that had been pre-conditioned with […] of methanol and […] of deionized water. Samples were washed with […] of 5% ammonium hydroxide (aq) followed by […] of 20% acetonitrile in water. The analyte was eluted with […] of 5% formic acid in 75:25 acetonitrile:water. The eluent was dried under a nitrogen stream. Residues were reconstituted in 80 μL of 20% acetonitrile (aq) containing 0.1% formic acid.
# All calibration standards were prepared in control rat plasma containing K2EDTA and protease inhibitor cocktail.
# Samples and standards were analyzed by TurbolonSpray™ UPLC-MS/MS using a system consisting of a CTC HTS PAL auto-injector (Leap, Carrboro, NC), an Agilent Infinity 1290 system with column oven (Palo Alto, CA), a Valco switching valve (Houston, TX), and either an AB Sciex API 5600 TripleTOF™ or Sciex API 4000QTrap mass spectrometer (Framingham, MA). Samples were injected onto a 2.1×50 mm reverse phase C18 analytical column, typically a Waters CORTECS UPLC C18+, 1.6 μm (Waters Corporation, Milford, MA) or similar. […] Initial conditions consisted of 90% A and 10% B. The organic component was increased to 95% B over a period of 3-4 minutes, depending on the peptide. Typical flow rates were 600 μL/min. The column temperature was held constant at 40 or 50° C. Peptides were quantified by monitoring one or more product ions produced from a multiply charged parent ion.
Structure (SMILES),Vd,clearance,half-life
CCCCCCCCCCCCCCCC(=O)N[C@@H](CCC(=O)N[C@@H](CCC(=O)N[C@@H](CCC(=O)N[C@@H](CCC(=O)NCCCC[C@H](NC(=O)[C@H](CCC(=O)O)NC(=O)[C@H](CC(N)=O)NC(=O)[C@H](C)NC(=O)[C@H](CC(C)C)NC(=O)[C@H](CCCNC(=N)N)NC(=O)[C@H](CCC(N)=O)NC(=O)[C@@H](NC(=O)[C@H](C)NC(=O)[C@@H]1CSSC[C@H](NC(=O)[C@@H](N)CO)C(=O)N[C@@H](CC(N)=O)C(=O)N[C@@H]([C@@H](C)O)C(=O)N[C@@H](CO)C(=O)N[C@@H]([C@@H](C)O)C(=O)N1)[C@@H](C)O)C(=O)N[C@@H](Cc1c[nH]cn1)C(=O)N[C@@H](CCCCN)C(=O)N[C@@H](CO)C(=O)N[C@@H](CO)C(=O)N[C@@H](CC(N)=O)C(=O)N[C@@H](CC(N)=O)C(=O)N[C@@H](Cc1ccccc1)C(=O)NCC(=O)N1CCC[C@H]1C(=O)N[C@H](C(=O)N[C@@H](CC(C)C)C(=O)N1CCC[C@H]1C(=O)N1CCC[C@H]1C(=O)N[C@H](C(=O)N[C@@H](CCCCN)C(=O)N[C@H](C(=O)NCC(=O)N[C@@H](CO)C(=O)N[C@@H](CCC(=O)O)C(=O)N[C@H](C(=O)N[C@@H](Cc1ccc(O)cc1)C(N)=O)[C@@H](C)O)C(C)C)[C@@H](C)O)[C@@H](C)CC)C(=O)O)C(=O)O)C(=O)O)C(=O)O [Compound A21] (H-SCNTSTCATQRLANEK([γGlu-γGlu-γGlu-γGlu-Palmitoyl])HKSSNNFGPILPPTKVGSETY-NH2; disulfide 2-7),0.131 L/kg,0.0107 L/h/kg,10.4 h
CCCCCCCCCCCCCCCC(=O)N[C@@H](CCC(=O)NCCOCCOCC(=O)NCCOCCOCC(=O)N[C@@H](CCC(=O)NCCCC[C@@H](NC(=O)[C@H](CCC(=O)O)NC(=O)[C@H](CC(N)=O)NC(=O)[C@H](C)NC(=O)[C@H](CC(C)C)NC(=O)[C@H](CCCNC(=N)N)NC(=O)[C@H](CCC(N)=O)NC(=O)[C@@H](NC(=O)[C@H](C)NC(=O)[C@@H]1CSSC[C@H](NC(=O)[C@@H](N)CO)C(=O)N[C@@H](CC(N)=O)C(=O)N[C@@H]([C@@H](C)O)C(=O)N[C@@H](CO)C(=O)N[C@@H]([C@@H](C)O)C(=O)N1)[C@@H](C)O)C(=O)N[C@@H](Cc1c[nH]cn1)C(=O)N[C@@H](CCCCN)C(=O)N[C@@H](CO)C(=O)N[C@@H](CO)C(=O)N[C@@H](CC(N)=O)C(=O)N[C@@H](CC(N)=O)C(=O)N[C@@H](Cc1ccccc1)C(=O)NCC(=O)N1CCC[C@H]1C(=O)N[C@H](C(=O)N[C@@H](CC(C)C)C(=O)N1CCC[C@H]1C(=O)N1CCC[C@H]1C(=O)N[C@H](C(=O)N[C@@H](CCCCN)C(=O)N[C@H](C(=O)NCC(=O)N[C@@H](CO)C(=O)N[C@@H](CCC(=O)O)C(=O)N[C@H](C(=O)N[C@@H](Cc1ccc(O)cc1)C(N)=O)[C@@H](C)O)C(C)C)[C@@H](C)O)[C@@H](C)CC)C(=O)O)C(=O)O [Compound A25] (H-SCNTSTCATQRLANE[dK]([γGlu-AEEA-AEEA-γGlu-Palmitoyl])HKSSNNFGPILPPTKVGSETY-NH2; disulfide 2-7; N-terminus assumed),0.249 L/kg,0.0473 L/h/kg,4.97 h
CCCCCCCCCCCCCCCC(=O)N[C@@H](CCC(=O)N[C@@H](CCC(=O)NCCCC[C@@H](NC(=O)[C@H](CCC(=O)O)NC(=O)[C@H](CCC(N)=O)NC(=O)[C@H](C)NC(=O)[C@H](CC(C)C)NC(=O)[C@H](CCCNC(=N)N)NC(=O)[C@H](CCC(N)=O)NC(=O)[C@@H](NC(=O)[C@H](C)NC(=O)[C@@H]1CSSC[C@H](NC(=O)[C@@H](N)CO)C(=O)N[C@@H](CC(N)=O)C(=O)N[C@@H]([C@@H](C)O)C(=O)N[C@@H](CO)C(=O)N[C@@H]([C@@H](C)O)C(=O)N1)[C@@H](C)O)C(=O)N[C@@H](Cc1c[nH]cn1)C(=O)N[C@@H](CCCCN)C(=O)N[C@@H](CO)C(=O)N[C@@H](CO)C(=O)N[C@@H](CC(N)=O)C(=O)N[C@@H](CC(N)=O)C(=O)N[C@@H](Cc1ccccc1)C(=O)NCC(=O)N1CCC[C@H]1C(=O)N[C@H](C(=O)N[C@@H](CC(C)C)C(=O)N1CCC[C@H]1C(=O)N1CCC[C@H]1C(=O)N[C@H](C(=O)N[C@@H](CCCCN)C(=O)N[C@H](C(=O)NCC(=O)N[C@@H](CO)C(=O)N[C@@H](CCC(=O)O)C(=O)N[C@H](C(=O)N[C@@H](Cc1ccc(O)cc1)C(N)=O)[C@@H](C)O)C(C)C)[C@@H](C)O)[C@@H](C)CC)C(=O)O)C(=O)O [Compound A28] (H-SCNTSTCATQRLAQE[dK]([γGlu-γGlu-Palmitoyl])HKSSNNFGPILPPTKVGSETY-NH2; disulfide 2-7),0.17 L/kg,0.0291 L/h/kg,5.41 h
CC[C@H](C)[C@H](NC(=O)[C@@H]1CCCN1C(=O)CNC(=O)[C@H](Cc1ccccc1)NC(=O)[C@H](CC(N)=O)NC(=O)[C@H](CC(N)=O)NC(=O)[C@H](CO)NC(=O)[C@H](CO)NC(=O)[C@H](CCCCN)NC(=O)[C@H](Cc1c[nH]cn1)NC(=O)[C@H](CC(C)C)NC(=O)[C@H](CCCCNC(=O)CCCCCCCCCCCC(=O)O)NC(=O)[C@H](CC(N)=O)NC(=O)[C@H](C)NC(=O)[C@H](CC(C)C)NC(=O)[C@H](CCCNC(=N)N)NC(=O)[C@H](CCC(N)=O)NC(=O)[C@@H](NC(=O)[C@H](C)NC(=O)[C@@H]1CSSC[C@H](NC(=O)[C@@H](N)CO)C(=O)N[C@@H](CC(N)=O)C(=O)N[C@@H]([C@@H](C)O)C(=O)N[C@@H](CO)C(=O)N[C@@H]([C@@H](C)O)C(=O)N1)[C@@H](C)O)C(=O)N[C@@H](CC(C)C)C(=O)N1CCC[C@H]1C(=O)N1CCC[C@H]1C(=O)N[C@H](C(=O)N[C@@H](CCCCN)C(=O)N[C@H](C(=O)NCC(=O)N[C@@H](CO)C(=O)N[C@@H](CCC(=O)O)C(=O)N[C@H](C(=O)N[C@@H](Cc1ccc(O)cc1)C(N)=O)[C@@H](C)O)C(C)C)[C@@H](C)O [Compound A31] (H-SCNTSTCATQRLANK(X5)LHKSSNNFGPILPPTKVGSETY-NH2; disulfide 2-7),0.57 L/kg,1.13 L/h/kg,0.404 h
CCCCCCCCCCCCCCCC(=O)N[C@@H](CCC(=O)NCCCC[C@@H](NC(=O)[C@H](CCC(=O)O)NC(=O)[C@H](CC(N)=O)NC(=O)[C@H](C)NC(=O)[C@H](CC(C)C)NC(=O)[C@H](CCCNC(=N)N)NC(=O)[C@H](CCC(N)=O)NC(=O)[C@@H](NC(=O)[C@H](C)NC(=O)[C@@H]1CSSC[C@H](NC(=O)[C@@H](N)CO)C(=O)N[C@@H](CC(N)=O)C(=O)N[C@@H]([C@@H](C)O)C(=O)N[C@@H](CO)C(=O)N[C@@H]([C@@H](C)O)C(=O)N1)[C@@H](C)O)C(=O)N[C@@H](Cc1c[nH]cn1)C(=O)N[C@@H](CCCCN)C(=O)N[C@@H](CO)C(=O)N[C@@H](CO)C(=O)N[C@@H](CC(N)=O)C(=O)N[C@@H](CC(N)=O)C(=O)N[C@@H](Cc1ccccc1)C(=O)NCC(=O)N1CCC[C@H]1C(=O)N[C@H](C(=O)N[C@@H](CC(C)C)C(=O)N1CCC[C@H]1C(=O)N1CCC[C@H]1C(=O)N[C@H](C(=O)N[C@@H](CCCCN)C(=O)N[C@H](C(=O)NCC(=O)N[C@@H](CO)C(=O)N[C@@H](CCC(=O)O)C(=O)N[C@H](C(=O)N[C@@H](Cc1ccc(O)cc1)C(N)=O)[C@@H](C)O)C(C)C)[C@@H](C)O)[C@@H](C)CC)C(=O)O [Compound A36] (H-SCNTSTCATQRLANE[dK]([γGlu-Palmitoyl])HKSSNNFGPILPPTKVGSETY-NH2; disulfide 2-7),0.244 L/kg,0.236 L/h/kg,1.32 h

# Source: patent US12018059B2, “Human amylin analog polypeptides and methods of use” (Intarcia Therapeutics, Inc., priority 2018, dated 2024)
